Experiments:
[1] = target: T1, 13762 MAT cell heparanase (Rattus norvegicus, UniProt Q71RP1); assay: Gel filtration analysis of substrate degradation by rat 13762 MAT cell homogenate; format: biochemical; details: for heparanase activity towards the substrate: incubation for 16 h at pH 5.1, 6.5 or 7.5; for apparent Mr of degradation fragments: with NAM
T1 construct: A time course incubation of 13762 MAT cell homogenates with HS at pH 5.1; endogenous in cells; host or cells: rat mammary adenocarcinoma 13762 MAT cells (Triton X-100 freeze/thaw homogenate)
T1 sequence (Q71RP1 29-536): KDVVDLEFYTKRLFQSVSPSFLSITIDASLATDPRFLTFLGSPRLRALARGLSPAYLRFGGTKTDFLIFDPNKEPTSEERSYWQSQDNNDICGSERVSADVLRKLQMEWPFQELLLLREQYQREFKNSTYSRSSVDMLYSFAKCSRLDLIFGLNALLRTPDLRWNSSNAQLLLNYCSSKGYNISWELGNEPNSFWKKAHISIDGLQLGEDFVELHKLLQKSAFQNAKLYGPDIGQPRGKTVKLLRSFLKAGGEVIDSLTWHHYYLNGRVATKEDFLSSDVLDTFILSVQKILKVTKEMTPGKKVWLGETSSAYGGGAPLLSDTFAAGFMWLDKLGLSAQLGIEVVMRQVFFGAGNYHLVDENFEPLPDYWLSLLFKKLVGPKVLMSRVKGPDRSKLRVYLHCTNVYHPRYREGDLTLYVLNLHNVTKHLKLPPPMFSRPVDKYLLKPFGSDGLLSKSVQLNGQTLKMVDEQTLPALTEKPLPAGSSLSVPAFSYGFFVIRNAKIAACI
Experimental: To assay for heparanase activity, up to 2 μl of sample was added to an […], containing 5 mM-N-acetylmannosamine and 0.1 mg/ml BSA in a total volume of 20 μl and incubated at 37° C. for the appropriate time. The reaction was stopped by freezing the tubes, 0.3 ml cold PBS added, the solution centrifuged if necessary at 4° C. and 0.1 ml of the sample applied to a cHRG-Sepharose mini-column pre-equilibrated in PBS. The columns were washed with 0.7 ml PBS, the washings and flow through material transferred to a scintillation vial, 10 ml of scintillation fluid added, and the radioactivity determined. Enzyme activity was expressed as pmol product formed per hour per mg protein or 10^6 cells or ml of serum. The cHRG-Sepharose columns were regenerated by the addition of 1 ml of 0.05M-Tris-HCl buffer, pH 7.5, containing 2M-NaCl and then equilibrated with PBS.
Heparanase activity was also detected by gel filtration chromatography of the incubation mixture on a Superose 6 HR 10/30 column (Pharmacia LKB Biotechnology, Uppsala, Sweden), equilibrated in and subsequently developed in PBS. The Pharmacia FPLC system was run at a flow rate of 0.25 ml/min with 0.5 ml fractions collected directly into scintillation vials, to which 3 ml of scintillation fluid was added, and the radioactivity determined. The column was calibrated with ^3H-N-acetylglucosamine (221 Da), bovine lung heparin (12.5 kDa) and heparin-derived Mr ave. standards (16.7, 10.6, 6.7 and 3.1 kDa) which had been partially de-N-acetylated and re-N-acetylated with ^3H-acetic anhydride as described above for the preparation of radiolabelled HS. Radiolabelled chondroitin-6-sulphate and carboxyl-reduced HS (prepared by the method of Karamanos et al, (1988)) were also prepared by the above method.

[2] = target: T2, Human platelet homogenate heparanase activity (Homo sapiens, UniProt Q9Y251); assay: Substrate degradation by human platelet homogenate heparanase activity; format: biochemical
T2 construct: assessed using the highly invasive rat mammary adenocarcinoma 13762 MAT and human platelet homogenates; from tissue; host or cells: human platelets (Triton X-100 freeze/thaw homogenate)
T2 sequence (Q9Y251 36-543): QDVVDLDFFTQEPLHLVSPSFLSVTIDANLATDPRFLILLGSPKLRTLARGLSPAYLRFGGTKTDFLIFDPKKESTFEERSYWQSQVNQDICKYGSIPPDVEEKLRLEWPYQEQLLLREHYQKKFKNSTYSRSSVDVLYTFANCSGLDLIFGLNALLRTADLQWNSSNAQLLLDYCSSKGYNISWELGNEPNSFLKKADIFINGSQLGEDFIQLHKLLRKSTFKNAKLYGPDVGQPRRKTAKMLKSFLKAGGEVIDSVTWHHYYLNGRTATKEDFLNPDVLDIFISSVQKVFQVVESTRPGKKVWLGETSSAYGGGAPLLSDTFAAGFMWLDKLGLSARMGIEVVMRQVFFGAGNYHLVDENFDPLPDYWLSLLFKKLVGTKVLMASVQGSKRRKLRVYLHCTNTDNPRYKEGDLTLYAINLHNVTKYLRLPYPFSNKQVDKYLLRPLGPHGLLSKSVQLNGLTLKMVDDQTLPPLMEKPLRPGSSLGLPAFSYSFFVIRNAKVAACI
Experimental: To assay for heparanase activity, up to 2 μl of sample was added to an incubation mixture consisting of 90 pmol of radiolabelled HS in 0.05M-sodium acetate buffer, pH 5.1, containing 5 mM-N-acetylmannosamine and 0.1 mg/ml BSA in a total volume of 20 μl and incubated at 37° C. for the appropriate time. The reaction was stopped by freezing the tubes, 0.3 ml cold PBS added, the solution centrifuged if necessary at 4° C. and 0.1 ml of the sample applied to a cHRG-Sepharose mini-column pre-equilibrated in PBS. The columns were washed with 0.7 ml PBS, the washings and flow through material transferred to a scintillation vial, 10 ml of scintillation fluid added, and the radioactivity determined. Enzyme activity was expressed as pmol product formed per hour per mg protein or 10^6 cells or ml of serum. The cHRG-Sepharose columns were regenerated by the addition of 1 ml of 0.05M-Tris-HCl buffer, pH 7.5, containing 2M-NaCl and then equilibrated with PBS.
Heparanase activity was also detected by gel filtration chromatography of the incubation mixture on a Superose 6 HR 10/30 column (Pharmacia LKB Biotechnology, Uppsala, Sweden), equilibrated in and subsequently developed in PBS. The Pharmacia FPLC system was run at a flow rate of 0.25 ml/min with 0.5 ml fractions collected directly into scintillation vials, to which 3 ml of scintillation fluid was added, and the radioactivity determined. […]

[3] = target: T3, human platelet heparanase (Homo sapiens, UniProt Q9Y251); assay: Heparanase assay 2: gel filtration analysis of HS or heparin degradation by purified human platelet heparanase; format: biochemical; details: 16 h at 37° C.
T3 construct: human platelet heparanase has been purified to homogeneity from previously frozen, washed platelets; from tissue; host or cells: human platelets (frozen, washed; five-column purification)
T3 sequence (Q9Y251 158-543 limits assumed): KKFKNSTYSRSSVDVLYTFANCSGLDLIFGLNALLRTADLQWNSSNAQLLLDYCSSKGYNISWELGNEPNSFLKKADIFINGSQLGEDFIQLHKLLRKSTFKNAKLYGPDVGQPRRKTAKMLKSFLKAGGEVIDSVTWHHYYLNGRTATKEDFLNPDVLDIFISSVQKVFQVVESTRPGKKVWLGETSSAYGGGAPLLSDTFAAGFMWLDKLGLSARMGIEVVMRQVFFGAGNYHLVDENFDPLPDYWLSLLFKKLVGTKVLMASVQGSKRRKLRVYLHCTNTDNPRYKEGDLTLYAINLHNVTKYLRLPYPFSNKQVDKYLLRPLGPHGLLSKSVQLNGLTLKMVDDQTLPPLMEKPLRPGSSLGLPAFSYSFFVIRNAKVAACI
T3 sequence (Q9Y251 36-109 limits assumed): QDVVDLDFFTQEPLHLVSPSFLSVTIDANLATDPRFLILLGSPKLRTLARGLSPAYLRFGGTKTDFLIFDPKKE
Experimental: Heparanase activity towards 2 μg of the radiolabelled HS or heparin analogues was assayed as described above for 16 h at 37° C., and detected by gel filtration analysis of the incubation mixture on either Superose 6 (for HS degradation) or Superose 12 (for heparin degradation). The chromatography columns were both equilibrated in and developed with PBS at a flow rate of 0.25 ml/min with 0.5 ml fractions being collected directly into scintillation vials, to which 3 ml of scintillation fluid was added, and the radioactivity determined. The columns were calibrated with ^3H-N-acetylglucosamine (221 Da), bovine lung heparin (12.5 kDa) and heparin-derived Mrave. standards (16.7, 10.6, 6.7 and 3.1 kDa) which had been partially de-N-acetylated and re-N-acetylated with ^3H-acetic anhydride as described above for the preparation of radiolabelled HS.

cHRG-Sepharose = assay: Binding of HS to cHRG-Sepharose, NaCl gradient elution; set-up: species or system chicken; details: salt gradient at pH 7.2
Experimental: Binding of HS to cHRG-Sepharose; Samples in 200 μl of PBS were applied to a mini-column (0.5×4.0 cm) of cHRG-Sepharose equilibrated in PBS at 4° C. The column was washed with 2 ml of PBS and eluted with a linear gradient (2×10 mls) of PBS and 10 mM-sodium phosphate buffer, pH7.2, containing 1.2M-NaCl developed at 0.5 ml/min with 0.5 ml fractions collected directly into scintillation vials, to which 4 ml of scintillation fluid was added and the radioactivity determined. The columns were re-equilibrated in PBS for further use.

Storage stability = format: physicochemical; details: stored at −20° C. in 10% (v:v) aqueous ethanol, repeated freezing and thawing

Row | heparanase activity towards the substrate [1] | heparanase activity towards the substrate [2] | size of fragments after cleavage [3] | apparent Mr of degradation fragments ([1]; pH 5.1, 16 h at 37° C.) | apparent Mr of degradation fragments ([1]; pH 6.5, 16 h at 37° C.) | apparent Mr of degradation fragments ([1]; pH 7.5, 16 h at 37° C.) | NaCl concentration eluting from cHRG-Sepharose (cHRG-Sepharose) | storage stability (Storage stability) | size of digestion fragments [2] | Substance
1 | No activity was detected | did not act | – | – | – | – | – | – | – | carboxyl-reduced heparan sulphate [CR-HS]
2 | No activity was detected | – | – | – | – | – | – | – | – | chondroitin-6-sulphate [chrondroitin-6-sulphate]
3 | – | – | 5 kDa | 5 kDa | 8 kDa | 16 kDa | 0.27 M-NaCl | stable for over a year | 5 kDa | heparan sulphate [HS]
